In ChEMBL document CHEMBL5500371, “Arginine and tryptophan-rich dendritic antimicrobial peptides that disrupt membranes for bacterial infection in vivo” (Eur J Med Chem, 2024):
Calls of active or inactive are those of the source. The rule behind the calls is not given here. Where a SMILES comes first, the peptide text is derived from it. Side-chain parts run from the residue outwards.

What was measured:
[1] = test system: Staphylococcus aureus; experiment: Antibacterial activity against Staphylococcus aureus ATCC 25923 assessed as inhibition of bacterial growth incubated for 20 hrs in presence of MgCl2 by broth microdilution method (reference value: 8 microM); assay type: functional
[2] = test system: Cell membrane; experiment: Induction of cytoplasmic membrane depolarization in Staphylococcus aureus assessed as increase in fluorescence intensity at >1 times MIC measured within 1 min by DISC3-5 dye based fluorescence analysis
[3] = test system: Cell membrane; experiment: Induction of cell membrane damage in Staphylococcus aureus assessed as PI uptake at 2 times MIC measured after 0.5 hrs by PI dye based flow cytometry analysis (reference value: 24.2%); assay type: cell membranes
[4] = test system: Escherichia coli; experiment: Additive antibacterial activity against Escherichia coli ATCC 25922 assessed as fractional inhibitory concentration index at 0.25 to 4 times MIC incubated for 20 hrs in presence of vancomycin by checkerboard assay; assay type: functional
[5] = test system: Escherichia coli; experiment: Antibacterial activity against Escherichia coli ATCC 25922 assessed as inhibition of bacterial growth incubated for 20 hrs in presence of MgCl2 by broth microdilution method (reference value: 8 microM); assay type: functional
[6] = test system: Staphylococcus aureus; experiment: Antibacterial activity against Staphylococcus aureus ATCC 25923 assessed as inhibition of bacterial growth incubated for 20 hrs in presence of ZnCl2 by broth microdilution method (reference value: 8 microM); assay type: functional
[7] = test system: Escherichia coli; experiment: Antibacterial activity against Escherichia coli ATCC 25922 assessed as inhibition of bacterial growth incubated for 20 hrs in presence of KCl by broth microdilution method (reference value: 8 microM); assay type: functional
[8] = test system: Escherichia coli; experiment: Resistant development in Escherichia coli assessed as increase in MIC at sub-MIC in presence of rifampicin measured after 20 passages; assay type: functional, organism-based
[9] = test system: Staphylococcus aureus; experiment: Antibacterial activity against Staphylococcus aureus ATCC 25923 assessed as inhibition of bacterial growth incubated for 20 hrs in presence of NaCl by broth microdilution method (reference value: 8 microM); assay type: functional
[10] = test system: Staphylococcus aureus; experiment: Antibacterial activity against Staphylococcus aureus ATCC 25923 assessed as inhibition of bacterial growth incubated for 20 hrs in presence of FeCl3 by broth microdilution method (reference value: 8 microM); assay type: functional
[11] = test system: Escherichia coli; experiment: Antibacterial activity against Escherichia coli ATCC 25922 assessed as inhibition of bacterial growth incubated for 20 hrs in presence of ZnCl2 by broth microdilution method (reference value: 16 microM); assay type: functional
[12] = test system: Escherichia coli; experiment: Antibacterial activity against Escherichia coli ATCC 25922 assessed as inhibition of bacterial growth incubated for 20 hrs in presence of MgCl2 by broth microdilution method (reference value: 16 microM); assay type: functional
[13] = Systemic toxicity in male BALB/c mouse assessed as hepatocyte hemorrhage at 109.31 mg/kg, ip administered as single dose by H and E staining based analysis; assay type: organism-based; details: hepatocytes
[14] = test system: Escherichia coli; experiment: Antibacterial activity against Escherichia coli ATCC 25922 assessed as inhibition of bacterial growth incubated for 20 hrs in presence of NaCl by broth microdilution method (reference value: 16 microM); assay type: functional
[15] = test system: Escherichia coli; experiment: Antibacterial activity against Escherichia coli ATCC 25922 assessed as inhibition of bacterial growth incubated for 20 hrs in presence of KCl by broth microdilution method (reference value: 16 microM); assay type: functional
[16] = test system: Staphylococcus aureus; experiment: Antibacterial activity against Staphylococcus aureus ATCC 25923 assessed as inhibition of bacterial growth upto 20 ug/ml pretreated with chymotrypsin for 6 hrs and measured after 18 hrs by absorbance based method; assay type: functional, organism-based; details: dose <= 20.0 µg/ml, time 24.0 hrs
[17] = test system: Escherichia coli; experiment: Additive antibacterial activity against Escherichia coli ATCC 25922 assessed as fractional inhibitory concentration index at 0.25 to 4 times MIC incubated for 20 hrs in presence of kanamycin by checkerboard assay; assay type: functional
[18] = test system: Escherichia coli; experiment: Antibacterial activity against Escherichia coli ATCC 25922 assessed as inhibition of bacterial growth incubated for 20 hrs in presence of FeCl3 by broth microdilution method (reference value: 16 microM); assay type: functional
[19] = test system: Staphylococcus aureus; experiment: Antibacterial activity against Staphylococcus aureus ATCC 25923 assessed as inhibition of bacterial growth incubated for 20 hrs in presence of ZnCl2 by broth microdilution method (reference value: 16 microM); assay type: functional
[20] = Systemic toxicity in male BALB/c mouse assessed as renal cell necrosis at 109.31 mg/kg, ip administered as single dose by H and E staining based analysis; assay type: organism-based; details: in vivo
[21] = test system: Staphylococcus aureus; experiment: Additive antibacterial activity against gentamicin resistant Staphylococcus aureus ATCC 25923 assessed as fractional inhibitory concentration index at 0.25 to 4 times MIC incubated for 20 hrs in presence of gentamicin by checkerboard assay; assay type: functional
[22] = test system: Escherichia coli; experiment: Additive antibacterial activity against Escherichia coli ATCC 25922 assessed as fractional inhibitory concentration index at 0.25 to 4 times MIC incubated for 20 hrs in presence of gentamicin by checkerboard assay; assay type: functional
[23] = test system: Staphylococcus aureus; experiment: Bactericidal activity against Staphylococcus aureus ATCC 25923 assessed as elimination of bacteria at 2 times MIC measured after >6 hrs by time kill assay; assay type: functional, organism-based
[24] = test system: Escherichia coli; experiment: Antibacterial activity against Escherichia coli ATCC 25922 assessed as inhibition of bacterial growth incubated for 20 hrs in presence of MgCl2 by broth microdilution method (reference value: 4 microM); assay type: functional, organism-based
[25] = test system: Cell membrane; experiment: Induction of cell membrane damage in Staphylococcus aureus assessed as PI uptake at 2 times MIC measured after 2 hrs by PI dye based flow cytometry analysis (reference value: 28.8%); assay type: cell membranes
[26] = test system: Staphylococcus aureus; experiment: Resistant development in Staphylococcus aureus assessed as increase in MIC at sub-MIC measured after 20 passages; assay type: functional, organism-based
[27] = test system: Escherichia coli; experiment: Synergistic antibacterial activity against Escherichia coli ATCC 25922 assessed as fractional inhibitory concentration index at 0.25 to 4 times MIC incubated for 20 hrs in presence of gentamicin by checkerboard assay; assay type: functional, organism-based
[28] = test system: Staphylococcus aureus; experiment: Additive antibacterial activity against Staphylococcus aureus ATCC 25923 assessed as fractional inhibitory concentration index at 0.25 to 4 times MIC incubated for 20 hrs in presence of rifampicin by checkerboard assay; assay type: functional, organism-based
[29] = test system: Escherichia coli; experiment: Synergistic antibacterial activity against Escherichia coli ATCC 25922 assessed as fractional inhibitory concentration index at 0.25 to 4 times MIC incubated for 20 hrs in presence of rifampicin by checkerboard assay; assay type: functional, organism-based
[30] = test system: Escherichia coli; experiment: Antibacterial activity against Escherichia coli ATCC 25922 assessed as inhibition of bacterial growth incubated for 20 hrs in presence of NaCl by broth microdilution method (reference value: 4 microM); assay type: functional, organism-based
[31] = test system: Escherichia coli; experiment: Antibacterial activity against Escherichia coli ATCC 25922 assessed as inhibition of bacterial growth incubated for 20 hrs in presence of KCl by broth microdilution method (reference value: 4 microM); assay type: functional, organism-based
[32] = test system: Escherichia coli; experiment: Antibacterial activity against Escherichia coli ATCC 25922 assessed as inhibition of bacterial growth incubated for 20 hrs in presence of ZnCl2 by broth microdilution method (reference value: 4 microM); assay type: functional, organism-based
[33] = test system: Escherichia coli; experiment: Antibacterial activity against Escherichia coli ATCC 25922 assessed as inhibition of bacterial growth incubated for 20 hrs in presence of FeCl3 by broth microdilution method (reference value: 4 microM); assay type: functional, organism-based
[34] = test system: Escherichia coli; experiment: Resistant development in Escherichia coli assessed as increase in MIC at sub-MIC measured after 20 passages; assay type: functional, organism-based

For `N=C(N)NCCC[C@H](NC(=O)[C@H](CCCNC(=N)N)NC(=O)[C@H](CCCNC(=N)N)NC(=O)[C@@H](N)CCCNC(=N)N)C(=O)N[C@@H](CCCCN)C(=O)N[C@@H](Cc1c[nH]c2ccccc12)C(=O)N[C@@H](Cc1c[nH]c2ccccc12)C(=O)N[C@@H](Cc1c[nH]c2ccccc12)C(=O)N[C@@H](Cc1c[nH]c2ccccc12)C(N)=O`, the MIC [1] was 16 µM, the Activity [2] was “Active” and the Activity [3] was > 90%. For the same compound, the “fractional inhibitory concentration index (FICI)” value [4] was 0.625, the MIC [5] was 16 µM and the MIC [6] was 8 µM. For the same compound, the MIC [7] was 16 µM, the Activity [8] was “inactive” and the MIC [9] was 8 µM. The MIC [10] was 8 µM.
For `N=C(N)NCCC[C@H](NC(=O)[C@@H](N)CCCNC(=N)N)C(=O)NCCCC[C@H](NC(=O)[C@H](CCCNC(=N)N)NC(=O)[C@@H](N)CCCNC(=N)N)C(=O)N[C@@H](Cc1c[nH]c2ccccc12)C(=O)N[C@@H](Cc1c[nH]c2ccccc12)C(=O)N[C@@H](Cc1c[nH]c2ccccc12)C(=O)N[C@@H](Cc1c[nH]c2ccccc12)C(N)=O` (H-RRK([Arg-Arg])WWWW-NH2), the MIC [11] was 8 µM, the MIC [12] was 16 µM and the Activity [13] was “Non-Toxic”. For the same compound, the MIC [14] was 32 µM, the MIC [15] was 16 µM and the Activity [16] was “Active”. For the same compound, the Activity [2] was “Active”, the “fractional inhibitory concentration index (FICI)” value [17] was 0.563 and the Activity [3] was > 90%. For the same compound, the “fractional inhibitory concentration index (FICI)” value [4] was 0.563, the MIC [18] was 16 µM and the MIC [19] was 16 µM. The Activity [8] was “inactive”, the Activity [20] was “Non-Toxic” and the “fractional inhibitory concentration index (FICI)” value [21] was 0.563. The “fractional inhibitory concentration index (FICI)” value [22] was 0.563.
With POLYMYXIN B the Activity [23] was 100%, the MIC [24] was 2 µM and the Activity [25] was 76.2%. The Activity [26] was “inactive”, the fractional inhibitory concentration index (FICI) [27] was 0.313 and the fractional inhibitory concentration index (FICI) [28] was 0.563. For the same compound, the fractional inhibitory concentration index (FICI) [29] was 0.313, the MIC [19] was 16 µM and the MIC [30] was 4 µM. For the same compound, the MIC [31] was 4 µM, the MIC [32] was 8 µM and the fractional inhibitory concentration index (FICI) [21] was 1. For the same compound, the MIC [33] was 4 µM and the Activity [34] was “inactive”.
